Test results from patent US11884932B2, “In vitro production of medial ganglionic eminence precursor cells” (The Regents of the University of California, priority 2013, dated 2024).

What was measured:
[1] = test system: HES3 NKX2.1-GFP hESC line with i12b-RFP; assay: Flow cytometry of NKX2.1-GFP and i12b-RFP double positive cells; format: cell-based, human; conditions: B27+5F cultures treated with DAPT
Text: The intergenic DLX½i12b (422) enhancer driving the mCherry RFP reporter gene (i12b-RFP) was delivered into the HES3 NKX2.1-GFP hESC line using lentivirus, and two stable cell lines were generated (#5 and #10) as confirmed by genomic DNA PCR for mCherry. (FIG. 22, F).
The modified lines were differentiated using the B27±5F method, and i12b-RFP expression was detected after three weeks of differentiation, along with NKX2.1. (FIG. 22, G). i12b-RFP+ cells in EBs co-expressed GABAergic neuron marker DLX2 and neuronal marker TUJ1. (FIGS. 22, H and I).
Flow cytometry analysis confirmed that many cells derived with the B27+5F method co-expressed both NKX2.1-GFP and i12b-RFP (FIG. 22, J).

SCID mouse cortex = assay: Tumor incidence after injection of hESC-derived NKX2.1-GFP+ cells into newborn SCID mouse cortex; format: in vivo
Protocol: Excess medium was removed from sorted cell pellets to create concentrated cell suspensions of 1000 cells/nl. Cells were loaded into a beveled glass micropipette (Wiretrol 5 ul, Drummond Scientific Company) mounted on a stereotactic hydraulic injector. P2 CB.17-SCID pups (Charles River) were anesthetized through hypothermia and positioned in a clay head mold on the injector platform. 10-100,000 cells per injection site were delivered transcranially into the right cerebral cortex using the following coordinates: 0.9 mm from the midline (sagittal sinus), and 2.6 mm from lambda. The depth of injection was 0.45 mm from the skin surface. All transplantation experiments adhered to approved UCSF Institutional Animal Care and Use Committee protocols.
Initially, day 35 monolayer cultures were sorted for NKX2.1-GFP+, without PSANCAM selection, and injected into newborn SCID mouse cortex. However, within 4 months, injected mouse brains (12/12 mice) contained tumor-like overgrowths at the injection site and/or at the pial surface near the injection tract (data not shown). These were not pluripotent cell-derived teratomas; OCT4+ cells or polarized neuroepithelial rosettes were not found. […] But, focal growths (˜1 focus/2500 plated cells, n=3) were occasionally detected in extended co-cultures, consistent with tumor formation in vivo. […]

C[C@H](NC(=O)Cc1cc(F)cc(F)c1)C(=O)N[C@H](C(=O)OC(C)(C)C)c1ccccc1 [DAPT]
double positive (NKX2.1-GFP and i12b-RFP) population of MGE derived interneurons [1]: marked increase
tumor incidence (SCID mouse cortex; brief addition of DAPT prior to injection, low-density monolayer culture, 3/9 mice): 33%
in vivo tumor incidence (SCID mouse cortex; day 35 cultures pretreated with DAPT and FACS-sorted for both NKX2.1-GFP+ and PSA-NCAM+ cells): 0/6
